We go through 22 compounds from ChEMBL document CHEMBL1127714, “Vasorelaxant activity of 2-fluoromethylbenzopyran K+ channel openers” (Bioorg Med Chem Lett, 1994).

A word on the EC50: it is the midpoint of the concentration-response curve.

The species named for assay [1] is Rattus norvegicus. Briefly: Intrinsic activity determined in rat aorta. The class given is functional.
Assay [2] is filed under the species Rattus norvegicus. Briefly: Negative logarithm of the molar concentration required to relax rat aorta precontracted with 30 mM KCL by 50% of intrinsic activity. The class given is functional.

Consider `O=C1CCCCN1[C@@H]1c2cc([N+](=O)[O-])ccc2OC(CF)(CF)[C@H]1O`, for which the IA in the assay filed under Rattus norvegicus [1] came out at 63.3%. The compound further gave an EC50 in the assay listed under Rattus norvegicus [2] of 2.75 nM. On the same counts, the results for `O=C1CCCCN1[C@@H]1c2cc(C(F)(F)C(F)(F)F)ccc2OC(CF)(CF)[C@H]1O` are 65.6% and 3.89 nM.

For `N#Cc1ccc2c(c1)[C@@H](N1CCCC1=O)[C@H](O)C(CF)(CF)O2`, the IA in the assay filed under Rattus norvegicus [1] is given as 78%. For the same compound, the EC50 in the assay filed under Rattus norvegicus [2] was 85.1 nM. On the same counts, the results for `O=c1ccccn1[C@@H]1c2cc([N+](=O)[O-])ccc2OC(CF)(CF)[C@H]1O` are 74.5% and 28.8 nM. On the same counts, the results for `O=C1CCCCN1C1=CC(CF)(CF)Oc2ccc(C(F)(F)C(F)(F)F)cc21` are 72% and 5.62 nM.

Take `N#Cc1ccc2c(c1)[C@@H](N1CCCCC1=O)[C@H](O)C(CF)(CF)O2`: the IA in the assay listed under Rattus norvegicus [1] is reported as 74.9%. The EC50 in the assay listed under Rattus norvegicus [2] was 8.91 nM. On the same counts, the results for `O=c1ccccn1C1=CC(CF)(CF)Oc2ccc(C(F)(F)C(F)(F)F)cc21` are 69.2% and 2.95 nM.

In the assay listed under Rattus norvegicus [1], `O=c1ccccn1[C@@H]1c2cc(C(F)(F)C(F)(F)F)ccc2OC(CF)(CF)[C@H]1O` returned an IA of 82.8%. The compound also gave an EC50 in the assay filed under Rattus norvegicus [2] of 12 nM. In turn, `O=C1CCCN1[C@@H]1c2cc([N+](=O)[O-])ccc2OC(CF)(CF)[C@H]1O` came in with an IA in the assay listed under Rattus norvegicus [1] of 72.7%. Also, in the assay filed under Rattus norvegicus [2], the EC50 was 24 nM. For the compound `CC1(C)Oc2ccc(C#N)cc2[C@@H](N2CCCC2=O)[C@@H]1O` [CROMAKALIM], the IA in the assay filed under Rattus norvegicus [1] turned out to be 74.7%.

On to `N#Cc1ccc2c(c1)C(N1CCCC1=O)=CC(CF)(CF)O2`, for which the IA in the assay listed under Rattus norvegicus [1] is 74.4%. The compound also gave an EC50 in the assay listed under Rattus norvegicus [2] of 102 nM.

In turn, `N#Cc1ccc2c(c1)C(N1CCCCC1=O)=CC(CF)(CF)O2` showed an IA in the assay listed under Rattus norvegicus [1] of 68.7%. Also, the EC50 in the assay filed under Rattus norvegicus [2] is 162 nM. On the same counts, the results for `CC1(C)C=C(n2ccccc2=O)c2cc(C#N)ccc2O1` [BIMAKALIM] are 70.2% and 30.2 nM. The matching figures for `N#Cc1ccc2c(c1)[C@@H](n1ccccc1=O)[C@H](O)C(CF)(CF)O2`: 78.7% and 148 nM. Compound `O=C1CCCCN1C1=CC(CF)(CF)Oc2ccc([N+](=O)[O-])cc21` yielded an IA in the assay filed under Rattus norvegicus [1] of 69.7%. The response in the assay listed under Rattus norvegicus [2] was half-maximal at 17.4 nM (EC50). On the same counts, the results for `O=C1CCCN1C1=CC(CF)(CF)Oc2ccc(C(F)(F)C(F)(F)F)cc21` are 68.6% and 1.51 nM. `[O-][n+]1ccccc1C1=CC(CF)(CF)Oc2ccc(C(F)(F)C(F)(F)F)cc21`: the IA in the assay listed under Rattus norvegicus [1] came to 68.2%. The EC50 in the assay listed under Rattus norvegicus [2] was 1.7 nM.

On to `O=C1CCCN1C1=CC(CF)(CF)Oc2ccc([N+](=O)[O-])cc21`, for which the IA in the assay filed under Rattus norvegicus [1] is given as 74.3%. Besides, the response in the assay filed under Rattus norvegicus [2] was half-maximal at 7.76 nM (EC50).

Regarding `O=c1ccccn1C1=CC(CF)(CF)Oc2ccc([N+](=O)[O-])cc21`, the IA in the assay listed under Rattus norvegicus [1] came out at 64.9%. In the assay listed under Rattus norvegicus [2], this compound gave an EC50 of 2.45 nM. On the same counts, the results for `O=C1CCCN1[C@@H]1c2cc(C(F)(F)C(F)(F)F)ccc2OC(CF)(CF)[C@H]1O` are 77.6% and 6.31 nM. In the assay listed under Rattus norvegicus [1], `N#Cc1ccc2c(c1)C(n1ccccc1=O)=CC(CF)(CF)O2` had an IA of 75.7%. In the assay listed under Rattus norvegicus [2], a half-maximal response (EC50) required 24.5 nM. `CC(N/C(=N\C#N)Nc1ccncc1)C(C)(C)C` (configuration not stated) [PINACIDIL ANHYDROUS] registered an IA in the assay filed under Rattus norvegicus [1] of 91.9%.
